Results as given in article PMC11208146, “Molecular basis for transposase activation by a dedicated AAA+ ATPase” (Nature, 2024).

What was measured:
Format in all cases: binding
[1] = molecular target: T1, IstA–IstB–STC holo-transpososome (Geobacillus stearothermophilus, UniProt Q45618+Q45619, Q45619:E167Q, form not given); assay: cryo-EM structure, focused refinement of core, […] Å; conditions: assembled with 1 mM ATP, 5 mM MgCl2, pH 7.5, strand-transfer DNA; IstB monomers 1a and 1a' contacting IstA
T1 construct: full-length IstB (His6-MBP cleaved) with full-length IstA (C-terminal MBP-His6 cleaved by TEV), E. coli; in the structure one IstA tetramer, two IstB decamers and strand-transfer DNA, about 1 MDa; IstA Glu209/Tyr213 contact the nucleotide of IstB 1a/1a'

IstB = molecular target: T2, IstB (Geobacillus stearothermophilus, UniProt Q45619); assay: cryo-EM structure, […] Å; conditions: 5 mM MgCl2, 1 mM ATP, pH 7.5, 60 bp target DNA; eight complete sites at IstB-IstB interfaces
T2 construct: full-length; His6-MBP tag cleaved (PreScission); E. coli BL21 codon-plus (DE3) RIL; pentamer of dimers (decamer) on 60 bp target DNA

[2] = molecular target: T1, IstA–IstB–STC holo-transpososome; assay: cryo-EM structure, […] Å; conditions: assembled with 1 mM ATP, 5 mM MgCl2, pH 7.5, strand-transfer DNA; internal IstB-IstB sites (e.g. 1b)

Compound	cryo-EM structure, focused refinement of core, 3.2 Å [1]	cryo-EM structure, 3.2 Å (IstB)	cryo-EM structure, 3.6 Å [2]
Nc1ncnc2c1ncn2[C@@H]1O[C@H](COP(=O)(O)OP(=O)(O)O)[C@@H](O)[C@H]1O [ADP]	revealed that the density in these active sites is most consistent with ADP		
Nc1ncnc2c1ncn2[C@@H]1O[C@H](COP(=O)(O)OP(=O)(O)OP(=O)(O)O)[C@@H](O)[C@H]1O [ATP]		Close inspection of the EM map showed clear density maps for ATP in all binding pockets	other subunits (1b, bound to ATP, shown on the right for comparison)
